Drawing on patent publication EP0499926B1, “2-Substituted quinolines, process for their preparation as well as their use in medicaments” (BAYER AG, priority 1991, dated 1992), this text covers IC50 for four compounds.

Structures are written as SMILES.

The assay deals with 5-LO. Briefly: Lipoxygenase inhibition: release of leukotriene B4 (LTB4) from human polymorphonuclear leukocytes (PMN) after addition of substance and Ca ionophore, reverse phase HPLC. To be noted: polymorphkernige Humanleukozyten (PMN), Ca-Ionophor. The format is cell-based. The source says:
Die pharmakologischen Wirkungen der erfindungsgemäßen Substanzen werden durch folgende Methode bestimmt:
Als Maß für die Lipoxyenase-Hemmung wurde die Freisetzung von Leukotrien B4 (LTB4) an polymorphkernigen Humanleukozyten (PMN) nach Zugabe von Substanzen und Ca-Ionophor mittels reverse phase HPLC nach Borgeat, P. et al., Proc. Nat. Acad. Sci, 76, 2148 -2152 (1979), bestimmt.
In der Tabelle 1 sind beispielhaft die nach diesem Test erzielten Werte einiger erfindungsgemäßer Verbindungen aufgeführt: Tabelle 1
By IC50 is commonly meant the concentration that inhibits the measured activity by half. A high value points to lower potency. The compound `C=Cc1cc(C(C(=O)O)C2CCCC2)ccc1OCc1ccc2ccccc2n1` (stereo not shown) [Beispiel 41] returned an IC50 of 560 nM.

`O=C(O)C(c1ccc(OCc2ccc3ccccc3n2)c(F)c1)C1CCCC1` (stereo not shown) [Beispiel 27, 2-[3-Fluor-4-(chinolin-2-yl-methoxy)phenyl]-2-cyclopentylessigsäure] showed an IC50 of 690 nM.

Consider `O=C(O)C(c1ccc(OCc2ccc3ccccc3n2)c(-n2cccc2)c1)C1CCCCCC1` (stereo not shown) [Beispiel 40], for which it took 790 nM to reach half-maximal inhibition (IC50).

Turning to `COC(=O)C(c1ccc(OCc2ccc3ccccc3n2)c(F)c1)C1CCCC1` (stereo not shown) [Beispiel 1, 2-[3-Fluor4-(chinolin-2-methoxy)phenyl]-2-cyclopentylessigsäuremethylester], inhibition was half-maximal at 2500 nM (IC50).
